± gives the expanded uncertainty stated by the source.
Test: mn = molality of the nth substance listed, in mol/kg
Conditions: 101 kPa, Liquid; for apparent molar heat capacity: Flow calorimetry

CC(=O)N[C@@H](CC(N)=O)C(N)=O [(S)-2-acetamidosuccinamide] + O
Conditions	apparent molar heat capacity [J/K/mol]	mass density [kg/m3]
288.15 K, m1 = 0.0291	307.3 ± 27	1000.53 ± 0.26
288.15 K, m1 = 0.03172	310 ± 25	1000.65 ± 0.26
288.15 K, m1 = 0.0368	307.6 ± 23	1000.9 ± 0.26
288.15 K, m1 = 0.03929	308.2 ± 20	1001.03 ± 0.26
288.15 K, m1 = 0.04222	309.5 ± 19	1001.17 ± 0.26
288.15 K, m1 = 0.04651	305.7 ± 17	1001.38 ± 0.26
288.15 K, m1 = 0.05278	306.6 ± 17	1001.68 ± 0.26
288.15 K, m1 = 0.05772	302.8 ± 14	1001.92 ± 0.26
288.15 K, m1 = 0.06036	303.7 ± 13	1002.04 ± 0.26
288.15 K, m1 = 0.06513	306.5 ± 14	1002.28 ± 0.27
288.15 K, m1 = 0.07059	308 ± 12	1002.54 ± 0.27
298.15 K, m1 = 0.02807	333.1 ± 28	998.384 ± 0.26
298.15 K, m1 = 0.03296	329.6 ± 24	998.617 ± 0.26
298.15 K, m1 = 0.0381	333.3 ± 21	998.865 ± 0.26
298.15 K, m1 = 0.04348	330.6 ± 18	999.124 ± 0.26
298.15 K, m1 = 0.04618	330.2 ± 18	999.246 ± 0.26
298.15 K, m1 = 0.05136	330.7 ± 16	999.495 ± 0.26
298.15 K, m1 = 0.05666	333.4 ± 19	999.741 ± 0.26
298.15 K, m1 = 0.06197	330.9 ± 14	–
298.15 K, m1 = 0.06198	333 ± 14	999.991 ± 0.26
298.15 K, m1 = 0.06667	332.5 ± 12	1000.22 ± 0.26
298.15 K, m1 = 0.07247	331 ± 11	1000.49 ± 0.26
313.15 K, m1 = 0.03215	353.5 ± 27	993.709 ± 0.28
313.15 K, m1 = 0.03777	356 ± 23	993.972 ± 0.28
313.15 K, m1 = 0.04273	355.6 ± 20	994.186 ± 0.28
313.15 K, m1 = 0.04501	361.1 ± 19	994.291 ± 0.28
313.15 K, m1 = 0.0481	358.6 ± 18	994.444 ± 0.28
313.15 K, m1 = 0.05166	353.7 ± 17	994.598 ± 0.28
313.15 K, m1 = 0.05423	357.7 ± 18	994.726 ± 0.27
313.15 K, m1 = 0.06055	358.6 ± 15	995.006 ± 0.27
313.15 K, m1 = 0.06612	356.4 ± 14	995.264 ± 0.27
313.15 K, m1 = 0.07077	355.6 ± 14	995.471 ± 0.27
313.15 K, m1 = 0.07187	357.7 ± 13	995.524 ± 0.27
328.15 K, m1 = 0.03205	378.3 ± 30	987.15 ± 0.3
328.15 K, m1 = 0.03805	377.4 ± 25	987.418 ± 0.3
328.15 K, m1 = 0.0428	373.4 ± 22	987.633 ± 0.3
328.15 K, m1 = 0.04683	379.4 ± 21	987.812 ± 0.3
328.15 K, m1 = 0.05183	377.2 ± 22	988.042 ± 0.29
328.15 K, m1 = 0.05694	380.7 ± 21	988.263 ± 0.29
328.15 K, m1 = 0.06115	377.1 ± 17	988.455 ± 0.29
328.15 K, m1 = 0.06488	376.5 ± 15	988.623 ± 0.29
328.15 K, m1 = 0.06958	380.2 ± 17	988.834 ± 0.29

From the NIST ThermoML archive (doi:10.1016/j.jct.2006.03.015)
